# Earlier results, collected in patent US20250255845A1, “USE OF INTERLEUKIN (IL)-17A INHIBITOR IN PREPARATION OF MEDICAMENT FOR TREATING INFLAMMATORY DISEASE” (Xiangnan University, priority 2024, published 2025).
# Tested on: endothelial cells
# Conditions: CN101947215A; cited from earlier work
row,Structure (SMILES),proliferation of endothelial cells / angiogenesis
1,COc1ccc(-c2cc(=O)c3c(OC)c(OC)c(OC)c(OC)c3o2)cc1OC [nobiletin],inhibit the proliferation of endothelial cells
2,COc1ccc(-c2cc(=O)c3c(OC)c(OC)c(OC)cc3o2)cc1OC [sinensetin],inhibit the proliferation of endothelial cells
